Measurements taken from paper PMC5665643, “CHIP as a membrane-shuttling proteostasis sensor” (eLife, 2017).
“Also recorded” adds a separate entry of the source.

Assays:
CHIP [1] = experiment: Liposome floatation assay; format: binding, Human; conditions: 20% PA, 1 mM liposomes, 0.5 µM CHIP, 30 min at 37°C, pH 7.5
Protocol: (§1) Human recombinant full length CHIP and its truncated versions were purified from Escherichia coli BL21 cells using Glutathion Sepharose 4B (GE Healthcare). Sepharose-bound GST-CHIP was subjected to overnight treatment with PreScission protease and the released tag-free protein was collected. Size exclusion chromatography on a HiLoad Superdex 200 column (GE Healthcare) followed to ensure the purity and homogeneity of proteins. All CHIP variants were kept in HSP70 buffer (25 mM HEPES KOH pH 7.5, 150 mM KCl, 5 mM MgCl2, 5% glycerol, 1 mM DTT).
(§2) Liposomes were prepared by mixing 1,2-dioleoyl-sn-glycero-3-phosphocholine (DOPC) with indicated amount (wt/wt) of either 1,2-dipalmitoyl-sn-glycero-3-phosphate (phosphatidic acid) or (wt/wt) 1,2-dipalmitoyl-sn-glycero-3-phosphoinositol-4-phosphate (PI4P) in a 1.5 ml reaction tube (Eppendorf). […] The liposome suspension was subjected to five freeze-thaw cycles in liquid nitrogen to promote unilamellar vesicle formation, aliquoted in 200 µl and pulse-sonicated for 8 s at 45% output with MS72 sonotrode (Bandelin) to create a population of homogenously sized liposomes as determined using NanoSight (Malvern Instruments). […]
1 mM liposomes and 0.5 µM CHIP were incubated in 150 µl reconstitution buffer for 30 min at 37°C. […] Resulting fractions were analyzed by SDS-PAGE and western blotting after loading dilution-corrected amount of respective fractions.

CHIP [2] = experiment: Lipid-binding assay (membrane-immobilized lipids, lipid arrays); parameters: species or system Human; conditions: lipid strips/PIP strips, 0.5 µg/ml wild-type chaperone-free CHIP, 1 hr at RT, anti-C-CHIP antibody
Protocol: as §1
Membrane-immobilized lipids (Membrane lipid strips P-6002 and PIP strips P-6001) were purchased from Echelon Research Laboratories. The strips were incubated with blocking buffer (3% fatty acid free BSA, 0.1% (v/v) Tween-20 in PBS pH 7.5) for 1 hr at RT. 0.5 µg/ml of purified wild-type or mutant CHIP was added in blocking buffer and incubated for 1 hr at RT. Strips were washed and bound proteins were detected using anti-C-CHIP antibody. For competition experiments, ten times molar excess of C-terminal HSP70 was added to CHIP in blocking buffer.

CHIP [3] = experiment: Liposome pelleting assay, effect of lipids and HSP70-C on CHIP association; format: binding, Human; conditions: 2 mM liposomes, 2 µM CHIP, 30 min at 37°C, N = 3
Protocol: as §1
Human C-terminal HSP70 6xHis-tagged N-terminally was purified from Escherichia coli BL21 cells using 1 ml HisTrap column (GE Healthcare). Bound protein was eluted by applying an imidazole gradient. Fractions containing the protein were subjected to size exclusion chromatography using HiLoad Superdex 200 in HSP70 buffer. His-NQO1, His-UbcH5a, His-Uev1a and His-Ubc13 were purified similarly except that PBS/1 mM DTT was used during size exclusion chromatography. Purity of recombinant protein was evaluated by SDS-PAGE and Coomassie BB G-250 (CBB) staining. Concentration of proteins was determined measuring absorbance at 280 nm and using ProtParam (ExPASy) to calculate respective extinction coefficients. Proteins were aliquoted, snap-frozen and stored at −80°C.
Liposomes were prepared by mixing 1,2-dioleoyl-sn-glycero-3-phosphocholine (DOPC) with indicated amount (wt/wt) of either 1,2-dipalmitoyl-sn-glycero-3-phosphate (phosphatidic acid) or (wt/wt) 1,2-dipalmitoyl-sn-glycero-3-phosphoinositol-4-phosphate (PI4P) in a 1.5 ml reaction tube (Eppendorf). Lipid mixtures were dried under a nitrogen stream and kept for 1 hr under vacuum. Liposomes were rehydrated in 1 ml filtered reconstitution buffer (25 mM HEPES KOH pH 7.5, 50 mM NaCl) to a concentration of 10 mM lipids. Liposomes were reconstituted by shaking at 2000 rpm for 1 hr at 50°C, followed by sonication for 1 hr at 50°C in a water bath. The liposome suspension was subjected to five freeze-thaw cycles in liquid nitrogen to promote unilamellar vesicle formation, aliquoted in 200 µl and pulse-sonicated for 8 s at 45% output with MS72 sonotrode (Bandelin) to create a population of homogenously sized liposomes as determined using NanoSight (Malvern Instruments). Sonicated liposomes were pooled, aliquoted again, snap-frozen and stored at −80°C.
2 mM liposomes were mixed with 2 µM recombinant protein in 50 µl reconstitution buffer. The suspension was incubated shaking at 450 rpm for 30 min at 37°C. Liposomes with bound protein were sedimented by ultracentrifugation at 100,000 g for 30 min at 25°C. Liposome pellet was washed with 50 µl of reconstitution buffer and sedimented again at 100,000 g for 30 min at 25°C. The pellet was resuspended in 10 µl reconstitution buffer, resolved by SDS-PAGE and analyzed by CBB staining. Images were acquired with ChemiDoc MP imaging system and quantified using Image Lab 5.0 software (both from Bio-Rad Laboratories). For competition assays, indicated amounts of C-terminal HSP70 were preincubated with 2 µM CHIP for 20 min at 37°C prior to co-sedimentation.

recombinant CHIP = experiment: Chemical crosslinking of recombinant CHIP in vitro; format: biochemical, Human; conditions: sodium deoxycholate, Coomassie Blue-stained reducing SDS-PAGE
Protocol: as §1
5 µM of recombinant CHIP were crosslinked with 0.025% glutaraldehyde for 10 min at 30°C unless indicated otherwise. Crosslinking reaction was quenched with 100 mM Tris HCl pH 7.5 for 10–15 min at RT. Where indicated, HSP70 peptide at 800 μM was pre-incubated at 30°C for 20 min before adding glutaraldehyde. Crosslinking on 20% PA-containing liposomes was performed after centrifugation on the resuspended pellet. For CHIP monomerization, fresh 10% sodium deoxycholate stock solution was used. Crosslinks were analyzed with SDS-PAGE and CBB staining.

CHIP [4] = conditions: steroid detergent deoxycholate, monomerization; ref Nikolay et al., 2004; cited from earlier work
Excerpt: Since lipid binding can influence the activity of enzymes ([Fang et al., 2001]; [Leonard and Hurley, 2011]), we sought to assess the ubiquitylation function of CHIP upon interaction with membranes. […] First, CHIP remained dimeric and was still capable of oligomerization (Figure 4a).

trypsin = experiment: Protease sensitivity assay (trypsin); format: physicochemical; conditions: 0.5 ng/µl trypsin, 37°C, 20% PA-containing liposomes; no significant difference; N = 3
Protocol: CHIP pelleted with 20% PA-containing liposomes was subjected to 0.5 ng/µl trypsin treatment at 37°C. Hydrolysis was stopped by adding hot reducing SDS sample buffer and boiling for 5 min. Samples were analyzed by SDS-PAGE and CBB staining. For controls without liposomes, protein was used at concentration assuming 30% binding to liposomes. Images were acquired with ChemiDoc MP imaging system and quantified using Image Lab 5.0 software (both from Bio-Rad Laboratories).

[5] = system: NQO1 P187S mutant; ubiquitin; CHIP; experiment: In vitro ubiquitylation on liposomes; format: biochemical; conditions: 37°C 1 hr
Protocol: In vitro ubiquitylation was performed in 50 mM Tris HCl pH 7.5, 50 mM NaCl, 10 mM MgCl2, 2 mM DTT and 2 mM ATP. Reactions contained 100 nM UBE1 (Boston Biochem, Cambridge, MA), 2 µM either UbcH5a or Uev1A/Ubc13, 5 µM CHIP and […] ubiquitin from bovine erythrocytes (Sigma-Aldrich). 2.5 µM NQO1 P187S mutant was added as substrate where indicated. Reactions proceeded at 37°C for 1 hr and then were stopped by adding reducing SDS sample buffer and boiling samples at 95°C for 5 min. Protein modification was analyzed by SDS-PAGE and immunoblotting using antibodies against NQO1, CHIP and ubiquitin. Where indicated, CHIP pelleted with 20% PA-containing liposomes was used instead of soluble protein.

[6] = Liposome pelleting assay, binding of CHIP and truncated variants to liposomes; conditions: 20% PA- or 5% PI4P-containing DOPC liposomes, 2 mM liposomes, 2 µM CHIP, 37°C; up to
Excerpt: (§3) For mammalian expression of EGFP, the expression vector pEGFP-N1 from Clontech (Mountain View, CA) was used. N-terminal EGFP-CHIP fusion protein was constructed by cloning human CHIP coding sequence in pEGFP-C2 vector (Clontech) using HindIII and BamHI restriction sites. A fusion between the N-terminalβ−1,4-galactosyltransferase1 and EGFP was used as a marker of the Golgi apparatus, farnesylated EGFP as a marker of plasma membrane (both constructs from Clontech). Untagged and 3xFLAG-tagged human CHIP for mammalian expression were constructed in pCMV-10 vector (Sigma-Aldrich). HSP70 was amplified from human cDNA and cloned into pcDNA3. 1 expression vector without a tag. HSP70 lacking the last amino acid (HSP70ΔD) was prepared by site-directed mutagenesis. Vectors of full-length CHIP, UbcH5a and mutant NQO1 for bacterial expression were prepared as described ([Martínez-Limón et al., 2016]). The TPR domain bacterial expression vector (TPR) was created by exchanging glutamate152 codon to a stop codon in the full-length CHIP vector. CHIP without TPR domain (ΔTPR) was cloned by deleting the sequence between serine25 and argininge130 by means of PCR. […]
as §2
2 mM liposomes were mixed with 2 µM recombinant protein in 50 µl reconstitution buffer. […] The pellet was resuspended in 10 µl reconstitution buffer, resolved by SDS-PAGE and analyzed by CBB staining. Images were acquired with ChemiDoc MP imaging system and quantified using Image Lab 5.0 software (both from Bio-Rad Laboratories). […]

[7] = Lipid-binding assay, binding of CHIP variants to phospholipids; conditions: 0.5 µg/ml protein, 1 hr at RT
Excerpt: as §3
Membrane-immobilized lipids (Membrane lipid strips P-6002 and PIP strips P-6001) were purchased from Echelon Research Laboratories. […] Strips were washed and bound proteins were detected using anti-C-CHIP antibody. […]

CCCCCCCCCCCCCCCC(=O)OC[C@H](COP(=O)(O)O)OC(=O)CCCCCCCCCCCCCCC [PA, 1,2-dipalmitoyl-sn-glycero-3-phosphate]
CHIP cofloatation with DOPC liposomes (CHIP [1]): strongly enhanced
CHIP binding to phospholipid on lipid array (CHIP [2]): CHIP specificity mainly to phosphatidic acid (PA)
CHIP association with DOPC-liposomes (pelleting), 5% PA (CHIP [3]; 5% PA, no significant difference): insufficient to strengthen binding of CHIP onto liposomes; also recorded: insufficient to enhance binding of CHIP to DOPC-liposomes
CHIP association with DOPC-liposomes (pelleting), PA (CHIP [3]; PA-containing liposomes (Figure 2b)): pelleting was increased in the presence of PA; also recorded: strongly

C[C@H](CCC(=O)O)[C@H]1CC[C@H]2[C@@H]3CC[C@@H]4C[C@H](O)CC[C@]4(C)[C@H]3C[C@H](O)[C@]12C [deoxycholate, sodium deoxycholate]
monomerization of CHIP (recombinant CHIP): monomerizes CHIP in vitro
ubiquitin ligase activity of CHIP (CHIP [4]): reversibly inactivate its ubiquitin ligase activity

CHIP: human recombinant full length CHIP, ubiquitin ligase
sensitivity to proteolysis on liposomes versus in solution (trypsin): does not change its sensitivity to proteolysis
ubiquitylation of NQO1 and K63 chain formation while attached to liposomes ([5]; 5 µM CHIP or CHIP pelleted with 20% PA-containing liposomes, UbcH5a or Ubc13/Uev1a): remains capable to ubiquitylate the substrate protein NQO1 and form unattached K63-conjugated chains
K63-based ubiquitin polymerization on liposomes versus soluble ([5]; Ubc13/Uev1a, 20% PA-containing liposomes): slightly weaker on liposomes
auto-ubiquitylation on liposomes versus soluble ([5]; UbcH5a, 20% PA-containing liposomes): somewhat stronger on liposomes
CHIP associated with liposomes, % of input [6]: 50–60%

B1: m2Δ: CHIP with KRKK to AAAA (221–224 aa) (protein, UniProt Q9UNE7 1-303, looked up, variant K221A R222A K223A K224A)
E3 ubiquitin-protein ligase …: MKGKEEKEGGARLGAGGGSPEKSPSAQELKEQGNRLFVGRKYPEAAACYGRAITRNPLVAVYYTNRALCYLKMQQHEQALADCRRALELDGQSVKAHFFLGQCQLEMESYDEAIANLQRAYSLAKEQRLNFGDDIPSALRIAKKKRWNSIEERRIHQESELHSYLSRLIAAERERELEECQRNHEGDEDDSHVRAQQACIEAKHDKYMADMDELFSQVDEAAAARDIPDYLCGKISFELMREPCITPSGITYDRKDIEEHLQRVGHFDPVTRSPLTQEQLIPNLAMKEVIDAFISENGWVEDY
phospholipid binding of CHIP variant versus wild-type [7]: affects CHIP interaction with phospholipids in vitro
